One compound from ChEMBL document CHEMBL4680122, “Design, synthesis and biological evaluation of new Axl kinase inhibitors containing 1,3,4-oxadiazole acetamide moiety as novel linker” (Eur J Med Chem, 2020) can be followed below.

As a reminder, the IC50 is the midpoint of a concentration-inhibition curve. As a reminder, the inhibition is the share of the control response that was lost under treatment. High values mean strong suppression, low ones little suppression.

For one assay, the system named is HT-29. Description: Antiproliferative activity against human HT-29 cells measured after 72 hrs by MTT assay. The following applies: HT-29, 72 h. In general terms: Formazan colour is commonly taken as a measure of viable cells.
Assay [1] concerns MCF7. Put plainly: Antiproliferative activity against human MCF7 cells measured after 72 hrs by MTT assay. The class given is functional, cell-based. The settings on record: MCF7, 72 h.
For assay [2], the system named is A549. Description: Potency index, ratio of foretinib IC50 to test compound IC50 for antiproliferative activity against human A549 cells. The class given is functional.
Assay [3] concerns PC-3. Put plainly: Potency index, ratio of foretinib IC50 to test compound IC50 for antiproliferative activity against human PC-3 cells. The class given is functional.
The subject of assay [4] is MCF7. Description: Potency index, ratio of foretinib IC50 to test compound IC50 for antiproliferative activity against human MCF7 cells. The class given is functional.
A further assay has as its system MDA-MB-231. Description: Antiproliferative activity against human MDA-MB-231 cells measured after 72 hrs by MTT assay. The assay is classed as functional, cell-based.
Assay [5] concerns the target Hepatocyte growth factor receptor (Homo sapiens, UniProt P08581). Put plainly: Inhibition of human N-terminal GST-fused c-MET cytoplasmic domain (956 to 1390 residues) expressed in baculovirus expression system using Srctide as substrate measured after 1 hr by mobility shift assay.
In assay [6] the target is Vascular endothelial growth factor receptor 2 (Homo sapiens, UniProt P35968). Description: Inhibition of human N-terminal GST-fused KDR cytoplasmic domain (790 to 1356 residues) expressed in baculovirus expression system using CSKtide as substrate measured after 1 hr by mobility shift assay.
Chain of Vascular endothelial growth factor receptor 2 (P35968 whole entry, the tested form may be a part): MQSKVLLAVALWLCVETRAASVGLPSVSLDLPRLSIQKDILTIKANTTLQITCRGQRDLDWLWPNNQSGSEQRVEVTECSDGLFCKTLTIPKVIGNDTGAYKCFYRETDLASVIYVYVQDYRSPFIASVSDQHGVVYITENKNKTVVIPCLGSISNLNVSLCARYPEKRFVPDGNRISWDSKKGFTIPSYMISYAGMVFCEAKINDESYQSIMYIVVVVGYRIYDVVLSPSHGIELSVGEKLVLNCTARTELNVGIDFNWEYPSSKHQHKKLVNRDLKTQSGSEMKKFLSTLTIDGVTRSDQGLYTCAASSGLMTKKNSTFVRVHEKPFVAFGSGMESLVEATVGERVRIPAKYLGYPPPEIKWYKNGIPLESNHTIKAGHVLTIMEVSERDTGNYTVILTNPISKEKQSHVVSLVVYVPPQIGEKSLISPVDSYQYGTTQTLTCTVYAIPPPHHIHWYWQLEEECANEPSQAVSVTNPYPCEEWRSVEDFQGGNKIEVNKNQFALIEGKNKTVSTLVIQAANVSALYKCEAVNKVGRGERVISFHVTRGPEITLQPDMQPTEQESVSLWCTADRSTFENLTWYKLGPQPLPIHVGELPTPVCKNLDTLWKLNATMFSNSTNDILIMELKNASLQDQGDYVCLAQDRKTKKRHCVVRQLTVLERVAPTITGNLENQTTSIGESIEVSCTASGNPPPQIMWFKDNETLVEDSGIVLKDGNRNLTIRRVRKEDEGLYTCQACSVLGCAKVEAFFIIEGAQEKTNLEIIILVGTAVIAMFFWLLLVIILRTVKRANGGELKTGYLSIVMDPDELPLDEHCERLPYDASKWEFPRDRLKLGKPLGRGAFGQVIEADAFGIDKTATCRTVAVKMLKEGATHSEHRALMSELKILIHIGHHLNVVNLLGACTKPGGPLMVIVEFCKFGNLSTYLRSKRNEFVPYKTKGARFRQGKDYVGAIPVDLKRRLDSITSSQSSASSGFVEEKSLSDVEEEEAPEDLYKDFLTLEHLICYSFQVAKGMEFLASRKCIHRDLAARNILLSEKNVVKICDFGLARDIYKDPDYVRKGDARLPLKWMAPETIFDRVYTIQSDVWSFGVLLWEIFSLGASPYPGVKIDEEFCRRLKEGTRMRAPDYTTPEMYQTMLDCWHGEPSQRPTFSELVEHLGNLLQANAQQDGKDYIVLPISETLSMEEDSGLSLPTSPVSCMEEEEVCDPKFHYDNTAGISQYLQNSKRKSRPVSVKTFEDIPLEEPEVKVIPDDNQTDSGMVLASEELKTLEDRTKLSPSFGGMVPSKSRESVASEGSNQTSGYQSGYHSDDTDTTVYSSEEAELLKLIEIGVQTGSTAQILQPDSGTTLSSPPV
Assay [7] concerns the target Mast/stem cell growth factor receptor Kit (Homo sapiens, UniProt P10721). Description: Inhibition of human N-terminal GST-tagged c-Kit cytoplasmic domain (544 to end residues) expressed in baculovirus infected Sf21 insect cells using peptide substrate measured after 1 hr by mobility shift assay.
Assay [8] deals with T1, Receptor-type tyrosine-protein kinase FLT3 (Homo sapiens, UniProt P36888).
T1 sequence (P36888 whole entry): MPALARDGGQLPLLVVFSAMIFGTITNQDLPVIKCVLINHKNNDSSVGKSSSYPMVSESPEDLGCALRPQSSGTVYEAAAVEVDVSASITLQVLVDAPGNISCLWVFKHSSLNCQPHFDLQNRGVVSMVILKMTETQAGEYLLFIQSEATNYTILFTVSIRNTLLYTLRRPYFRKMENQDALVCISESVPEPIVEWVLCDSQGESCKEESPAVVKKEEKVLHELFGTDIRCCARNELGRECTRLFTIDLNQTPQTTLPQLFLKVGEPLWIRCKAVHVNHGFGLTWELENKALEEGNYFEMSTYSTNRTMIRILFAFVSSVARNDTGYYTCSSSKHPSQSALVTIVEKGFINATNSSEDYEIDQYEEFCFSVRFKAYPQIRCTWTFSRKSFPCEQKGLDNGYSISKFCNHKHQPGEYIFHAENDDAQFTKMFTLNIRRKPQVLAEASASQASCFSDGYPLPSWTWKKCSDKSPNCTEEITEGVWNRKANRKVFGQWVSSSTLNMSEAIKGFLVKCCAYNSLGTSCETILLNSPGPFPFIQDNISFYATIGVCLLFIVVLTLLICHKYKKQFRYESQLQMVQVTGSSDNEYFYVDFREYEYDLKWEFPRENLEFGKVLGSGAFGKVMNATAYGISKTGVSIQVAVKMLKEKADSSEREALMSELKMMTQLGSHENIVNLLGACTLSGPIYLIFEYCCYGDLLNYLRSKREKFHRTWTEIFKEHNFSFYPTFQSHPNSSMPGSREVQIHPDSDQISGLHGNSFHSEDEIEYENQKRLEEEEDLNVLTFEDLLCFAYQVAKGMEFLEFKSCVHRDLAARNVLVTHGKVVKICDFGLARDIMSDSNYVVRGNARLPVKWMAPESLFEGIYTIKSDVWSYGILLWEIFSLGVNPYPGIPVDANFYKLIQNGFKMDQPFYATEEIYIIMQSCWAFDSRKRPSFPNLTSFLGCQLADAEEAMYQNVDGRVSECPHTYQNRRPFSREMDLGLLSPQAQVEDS
Description: Inhibition of human N-terminal GST-fused FLT3 cytoplasmic domain (564 to 993 residues) expressed in baculovirus expression system using Srctide as substrate measured after 1 hr by mobility shift assay.

Assay [9] deals with Platelet-derived growth factor receptor beta (Homo sapiens, UniProt P09619). Put plainly: Inhibition of human His-tagged PDGFRB cytoplasmic domain expressed in baculovirus expression system using peptide substrate measured after 1 hr by mobility shift assay.
Chain of Platelet-derived growth factor receptor beta (P09619 whole entry, the tested form may be a part): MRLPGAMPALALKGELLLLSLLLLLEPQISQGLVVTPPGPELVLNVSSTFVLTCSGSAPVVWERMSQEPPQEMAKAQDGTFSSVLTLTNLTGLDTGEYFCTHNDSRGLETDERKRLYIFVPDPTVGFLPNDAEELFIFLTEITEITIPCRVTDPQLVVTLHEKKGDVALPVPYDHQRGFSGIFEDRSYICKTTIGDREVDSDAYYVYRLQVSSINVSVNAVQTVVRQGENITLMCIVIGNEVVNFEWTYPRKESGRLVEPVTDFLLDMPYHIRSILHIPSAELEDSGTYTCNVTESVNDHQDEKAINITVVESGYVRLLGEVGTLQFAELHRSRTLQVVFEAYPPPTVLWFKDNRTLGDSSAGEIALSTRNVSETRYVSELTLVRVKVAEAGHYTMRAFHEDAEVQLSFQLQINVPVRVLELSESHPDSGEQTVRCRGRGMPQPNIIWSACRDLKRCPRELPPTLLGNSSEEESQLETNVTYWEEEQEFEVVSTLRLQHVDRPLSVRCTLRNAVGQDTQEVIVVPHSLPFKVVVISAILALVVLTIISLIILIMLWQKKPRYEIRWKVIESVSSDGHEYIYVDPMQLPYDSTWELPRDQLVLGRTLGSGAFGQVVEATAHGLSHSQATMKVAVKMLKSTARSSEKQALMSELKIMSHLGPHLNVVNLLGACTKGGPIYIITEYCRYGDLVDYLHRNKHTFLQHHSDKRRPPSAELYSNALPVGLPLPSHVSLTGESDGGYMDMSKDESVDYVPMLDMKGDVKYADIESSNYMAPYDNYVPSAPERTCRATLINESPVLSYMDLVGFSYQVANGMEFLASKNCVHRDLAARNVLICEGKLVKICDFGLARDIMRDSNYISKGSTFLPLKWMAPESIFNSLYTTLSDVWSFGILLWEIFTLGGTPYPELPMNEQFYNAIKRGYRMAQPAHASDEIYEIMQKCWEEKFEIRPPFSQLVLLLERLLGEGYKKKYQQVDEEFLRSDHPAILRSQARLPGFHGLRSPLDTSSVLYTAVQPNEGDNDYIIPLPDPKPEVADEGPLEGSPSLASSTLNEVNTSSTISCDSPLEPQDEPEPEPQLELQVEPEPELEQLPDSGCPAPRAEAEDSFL
The target of assay [10] is T2, Tyrosine-protein kinase Mer (Homo sapiens, UniProt Q12866).
T2 sequence (Q12866 whole entry): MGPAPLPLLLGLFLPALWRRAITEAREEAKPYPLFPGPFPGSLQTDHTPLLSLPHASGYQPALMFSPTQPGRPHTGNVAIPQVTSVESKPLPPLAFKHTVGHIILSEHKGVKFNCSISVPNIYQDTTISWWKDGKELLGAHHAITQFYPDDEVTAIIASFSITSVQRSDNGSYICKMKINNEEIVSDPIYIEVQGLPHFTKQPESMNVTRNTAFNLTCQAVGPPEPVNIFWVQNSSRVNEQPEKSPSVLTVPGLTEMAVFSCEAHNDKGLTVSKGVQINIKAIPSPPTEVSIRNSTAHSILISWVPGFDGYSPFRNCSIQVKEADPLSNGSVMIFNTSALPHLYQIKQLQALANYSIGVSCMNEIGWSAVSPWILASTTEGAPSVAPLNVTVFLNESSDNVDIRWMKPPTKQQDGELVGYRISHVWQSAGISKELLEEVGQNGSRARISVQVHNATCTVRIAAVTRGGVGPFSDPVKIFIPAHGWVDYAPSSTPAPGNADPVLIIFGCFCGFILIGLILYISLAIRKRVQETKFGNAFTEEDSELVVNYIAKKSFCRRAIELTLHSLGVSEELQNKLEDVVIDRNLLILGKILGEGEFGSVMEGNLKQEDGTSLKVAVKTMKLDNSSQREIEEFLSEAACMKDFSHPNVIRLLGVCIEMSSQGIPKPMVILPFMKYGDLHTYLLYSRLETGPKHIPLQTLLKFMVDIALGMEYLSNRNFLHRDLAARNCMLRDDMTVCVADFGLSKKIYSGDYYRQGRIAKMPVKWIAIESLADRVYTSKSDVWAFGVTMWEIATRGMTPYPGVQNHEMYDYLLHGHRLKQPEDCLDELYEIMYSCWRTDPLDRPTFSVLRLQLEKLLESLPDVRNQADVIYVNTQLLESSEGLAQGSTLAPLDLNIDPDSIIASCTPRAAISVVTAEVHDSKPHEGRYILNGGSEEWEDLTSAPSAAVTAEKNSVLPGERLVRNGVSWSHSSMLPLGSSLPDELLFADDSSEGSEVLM
Put plainly: Inhibition of MER (unknown origin).

Assay [11] concerns the target Vascular endothelial growth factor receptor 3 (Homo sapiens) (UniProt P35916). Put plainly: Inhibition of Flt4 (unknown origin) at 200 nM relative to control.
A further assay concerns NCI-H1975. Description: Antiproliferative activity against human NCI-H1975 cells measured after 72 hrs by MTT assay. The assay is classed as functional, cell-based. The following applies: NCI-H1975, 72 h.
Assay [12] concerns A549. Description: cells. The following applies: Homo sapiens, A549, 72 h.
Description: Antiproliferative activity against human A549 cells measured after 72 hrs by MTT assay
Assay [13] has as its system PC-3. Put plainly: cells. The settings on record: Homo sapiens, PC-3, 72 h.
Description: Antiproliferative activity against human PC-3 cells measured after 72 hrs by MTT assay

Molecules are shown by their SMILES. Calls of active or inactive are those of the source. No cut-off for these calls is given here. Some results are limits rather than exact numbers.

Chain of Vascular endothelial growth factor receptor 3 (Homo sapiens) (P35916 whole entry): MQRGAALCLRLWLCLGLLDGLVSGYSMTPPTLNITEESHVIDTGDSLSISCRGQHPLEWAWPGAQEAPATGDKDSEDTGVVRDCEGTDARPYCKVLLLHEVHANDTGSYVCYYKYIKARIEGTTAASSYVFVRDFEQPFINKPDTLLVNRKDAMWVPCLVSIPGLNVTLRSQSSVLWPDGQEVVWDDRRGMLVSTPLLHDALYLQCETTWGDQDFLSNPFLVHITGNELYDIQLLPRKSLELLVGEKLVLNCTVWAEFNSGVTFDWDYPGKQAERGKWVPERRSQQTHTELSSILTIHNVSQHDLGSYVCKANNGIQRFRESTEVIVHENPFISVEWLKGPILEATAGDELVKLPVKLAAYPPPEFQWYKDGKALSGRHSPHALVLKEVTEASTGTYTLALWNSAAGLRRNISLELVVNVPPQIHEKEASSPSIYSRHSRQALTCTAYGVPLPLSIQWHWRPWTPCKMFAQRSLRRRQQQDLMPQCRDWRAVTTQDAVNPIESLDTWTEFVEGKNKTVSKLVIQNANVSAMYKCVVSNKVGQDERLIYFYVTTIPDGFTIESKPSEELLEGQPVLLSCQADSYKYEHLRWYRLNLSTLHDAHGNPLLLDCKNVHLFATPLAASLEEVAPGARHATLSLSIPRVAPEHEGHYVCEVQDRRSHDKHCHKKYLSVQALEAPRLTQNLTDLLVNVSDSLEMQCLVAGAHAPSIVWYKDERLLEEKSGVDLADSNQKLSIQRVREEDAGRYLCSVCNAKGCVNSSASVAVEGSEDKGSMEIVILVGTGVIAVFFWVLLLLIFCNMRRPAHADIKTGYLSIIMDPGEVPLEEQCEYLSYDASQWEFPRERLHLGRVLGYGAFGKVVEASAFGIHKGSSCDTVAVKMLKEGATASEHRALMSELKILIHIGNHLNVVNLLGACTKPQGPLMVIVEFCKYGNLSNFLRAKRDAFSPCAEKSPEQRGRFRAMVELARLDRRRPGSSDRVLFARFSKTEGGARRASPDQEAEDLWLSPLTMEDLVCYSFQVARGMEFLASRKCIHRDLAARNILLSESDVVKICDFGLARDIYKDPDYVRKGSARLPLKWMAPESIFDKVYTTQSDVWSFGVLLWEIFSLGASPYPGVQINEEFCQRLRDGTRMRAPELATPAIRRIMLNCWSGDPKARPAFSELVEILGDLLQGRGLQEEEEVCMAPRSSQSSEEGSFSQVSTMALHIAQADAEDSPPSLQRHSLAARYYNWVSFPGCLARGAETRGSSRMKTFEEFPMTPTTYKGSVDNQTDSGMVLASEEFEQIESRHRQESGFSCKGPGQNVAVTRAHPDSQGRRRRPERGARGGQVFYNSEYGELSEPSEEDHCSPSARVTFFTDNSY
Chain of Mast/stem cell growth factor receptor Kit (P10721 whole entry, the tested form may be a part): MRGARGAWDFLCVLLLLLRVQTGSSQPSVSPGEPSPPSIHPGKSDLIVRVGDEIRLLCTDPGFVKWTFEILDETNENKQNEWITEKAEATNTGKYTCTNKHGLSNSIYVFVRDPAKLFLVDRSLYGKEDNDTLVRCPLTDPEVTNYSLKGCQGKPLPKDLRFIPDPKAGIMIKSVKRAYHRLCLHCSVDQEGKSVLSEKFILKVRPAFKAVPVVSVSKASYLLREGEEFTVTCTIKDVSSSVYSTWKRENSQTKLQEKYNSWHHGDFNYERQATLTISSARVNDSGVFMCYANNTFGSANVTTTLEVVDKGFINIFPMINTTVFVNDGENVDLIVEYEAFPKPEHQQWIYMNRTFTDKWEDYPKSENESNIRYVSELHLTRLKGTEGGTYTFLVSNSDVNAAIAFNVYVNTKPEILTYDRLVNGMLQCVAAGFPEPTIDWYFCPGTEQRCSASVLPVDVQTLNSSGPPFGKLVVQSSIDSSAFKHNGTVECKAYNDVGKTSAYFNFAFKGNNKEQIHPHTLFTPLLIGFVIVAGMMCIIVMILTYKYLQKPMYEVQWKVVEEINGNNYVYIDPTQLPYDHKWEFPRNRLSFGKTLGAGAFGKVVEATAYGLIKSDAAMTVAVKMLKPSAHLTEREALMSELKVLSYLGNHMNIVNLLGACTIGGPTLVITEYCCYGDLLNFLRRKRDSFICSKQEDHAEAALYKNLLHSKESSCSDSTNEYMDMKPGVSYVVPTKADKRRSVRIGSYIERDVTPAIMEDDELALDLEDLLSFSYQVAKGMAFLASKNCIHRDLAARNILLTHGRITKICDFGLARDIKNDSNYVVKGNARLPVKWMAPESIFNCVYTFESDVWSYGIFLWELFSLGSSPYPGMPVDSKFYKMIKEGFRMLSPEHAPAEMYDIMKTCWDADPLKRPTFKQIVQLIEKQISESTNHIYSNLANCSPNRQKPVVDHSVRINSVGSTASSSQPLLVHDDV

For the compound `COc1cc2c(Oc3ccc(NC(=O)C4(c5nnc(-c6ccc(F)cc6)o5)CC4)cc3F)ccnc2cc1OCCCN1CCCCC1`, the IC50 with HT-29 is 1030 nM; in the assay on MCF7 [1], 1010 nM; in assay [5], 71 nM; in assay [6], 81 nM; in [7], 63 nM; in assay [8], 103 nM. Besides, the IC50 was over 200 nM in assay [9]; over 200 nM in assay [10]; 99 nM with NCI-H1975; 53 nM with A549 [12]; 590 nM in the assay on PC-3 [13]. In addition, the “Ratio IC50” value in the assay with A549 [2] is given as 1.9; with PC-3 [3], 1.54; in the assay with MCF7 [4], 2. Moreover, the result with MDA-MB-231 was Active. In assay [11], this compound returned an inhibition of over 80%.
